Data from patent publication US8633207B2, “Quinazoline compounds and methods of use thereof” (Ambit Biosciences Corporation, priority 2010, dated 2014).

Key:
JAK3 = biological target: T1, JAK3 (Homo sapiens, UniProt P52333); assay: Competition binding assay to determine Kd against JAK kinases: JAK3
T1 construct: made in house; host or cells: T7 phage display, or HEK-293 cells (alternative)
T1 sequence (P52333 1-1124): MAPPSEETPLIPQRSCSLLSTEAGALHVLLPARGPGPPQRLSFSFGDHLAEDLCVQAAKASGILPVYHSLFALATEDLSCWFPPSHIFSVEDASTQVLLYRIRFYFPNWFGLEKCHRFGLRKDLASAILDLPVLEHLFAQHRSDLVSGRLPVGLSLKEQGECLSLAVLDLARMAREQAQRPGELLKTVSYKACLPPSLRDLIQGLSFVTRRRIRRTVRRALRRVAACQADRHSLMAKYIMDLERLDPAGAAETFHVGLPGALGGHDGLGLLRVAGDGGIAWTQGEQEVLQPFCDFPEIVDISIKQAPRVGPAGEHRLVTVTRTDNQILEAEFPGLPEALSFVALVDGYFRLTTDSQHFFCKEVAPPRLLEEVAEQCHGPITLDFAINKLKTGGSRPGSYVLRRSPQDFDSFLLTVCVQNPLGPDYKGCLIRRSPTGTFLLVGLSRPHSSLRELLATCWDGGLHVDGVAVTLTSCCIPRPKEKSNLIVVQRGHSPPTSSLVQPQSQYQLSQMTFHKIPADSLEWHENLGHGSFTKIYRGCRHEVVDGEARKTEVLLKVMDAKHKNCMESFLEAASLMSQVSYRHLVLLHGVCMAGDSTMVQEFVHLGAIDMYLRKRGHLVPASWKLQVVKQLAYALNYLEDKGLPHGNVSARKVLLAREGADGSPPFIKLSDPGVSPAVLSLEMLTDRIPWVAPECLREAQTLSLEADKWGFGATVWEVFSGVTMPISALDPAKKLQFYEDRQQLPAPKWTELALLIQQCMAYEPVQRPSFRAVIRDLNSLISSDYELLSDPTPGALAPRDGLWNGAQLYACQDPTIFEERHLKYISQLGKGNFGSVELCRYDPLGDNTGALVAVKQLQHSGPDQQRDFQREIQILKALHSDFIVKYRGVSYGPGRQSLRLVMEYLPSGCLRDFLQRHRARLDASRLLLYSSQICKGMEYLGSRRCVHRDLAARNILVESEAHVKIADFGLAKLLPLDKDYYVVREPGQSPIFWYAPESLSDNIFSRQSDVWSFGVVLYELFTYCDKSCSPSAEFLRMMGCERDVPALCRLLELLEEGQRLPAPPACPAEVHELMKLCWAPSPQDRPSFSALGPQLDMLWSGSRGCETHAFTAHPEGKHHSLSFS
Source text: (§1) Competition Binding Assay to Determine Binding Constants (Kd) of the Compounds Against JAK Kinases
(§2) Competition binding assays used herein were developed, validated and performed as described in Fabian et al., Nature Biotechnology 2005, 23, 329-336. Kinases were produced as fusions to T7 phage (See, Fabian et al. or WO04/015142) or alternatively, the kinases were expressed in HEK-293 cells and subsequently tagged with DNA for PCR detection (See, WO08/005,310). For the binding assays, streptavidin-coated magnetic beads were treated with biotinylated affinity ligands for 30 min at rt to generate affinity resins. The liganded beads were blocked with excess biotin and washed with blocking buffer (SeaBlock (Pierce), 1% BSA, 0.05% Tween 20, 1 mM DTT) to remove unbound ligand and to reduce non-specific binding. Binding reactions were assembled by combining kinase, liganded affinity beads, and test compounds in 1× binding buffer (20% SeaBlock, 0.17×PBS, 0.05% Tween 20, 6 mM DTT). Test compounds were prepared as 100× stocks in DMSO and rapidly diluted into the aqueous environment. DMSO was added to control assays lacking a test compound. Primary screen interactions were performed in polypropylene 384-well plates in a final volume of 34 μL, while Kd determinations were performed in polystyrene 96-well plates in a final volume of 135 μL. The assay plates were incubated at room temperature with shaking for 1 hour, long enough for binding reactions to reach equilibrium, and the affinity beads were washed extensively with wash buffer (1×PBS, 0.05% Tween 20) to remove unbound protein. The beads were then resuspended in elution buffer (1×PBS, 0.05% Tween 20, 2 μM non-biotinylated affinity ligand) and incubated at room temperature with shaking for 30 min. The kinase concentration in the eluates was measured by quantitative PCR. Each kinase was tested individually against each compound. Kds were determined using eleven serial threefold dilutions. A selectivity score, which is a quantitative measure of selectivity of a compound against a panel of enzymes, may be calculated for a compound by dividing the number of enzymes for which a compound meets a set criteria, (for example, a binding constant of 100 nM or less), by the total number of enzymes tested.

JAK2 = biological target: T2, JAK2 (Homo sapiens, UniProt O60674); assay: Competition binding assay to determine Kd against JAK kinases: JAK2
T2 construct: made in house; host or cells: T7 phage display, or HEK-293 cells (alternative)
T2 sequence (O60674 whole entry): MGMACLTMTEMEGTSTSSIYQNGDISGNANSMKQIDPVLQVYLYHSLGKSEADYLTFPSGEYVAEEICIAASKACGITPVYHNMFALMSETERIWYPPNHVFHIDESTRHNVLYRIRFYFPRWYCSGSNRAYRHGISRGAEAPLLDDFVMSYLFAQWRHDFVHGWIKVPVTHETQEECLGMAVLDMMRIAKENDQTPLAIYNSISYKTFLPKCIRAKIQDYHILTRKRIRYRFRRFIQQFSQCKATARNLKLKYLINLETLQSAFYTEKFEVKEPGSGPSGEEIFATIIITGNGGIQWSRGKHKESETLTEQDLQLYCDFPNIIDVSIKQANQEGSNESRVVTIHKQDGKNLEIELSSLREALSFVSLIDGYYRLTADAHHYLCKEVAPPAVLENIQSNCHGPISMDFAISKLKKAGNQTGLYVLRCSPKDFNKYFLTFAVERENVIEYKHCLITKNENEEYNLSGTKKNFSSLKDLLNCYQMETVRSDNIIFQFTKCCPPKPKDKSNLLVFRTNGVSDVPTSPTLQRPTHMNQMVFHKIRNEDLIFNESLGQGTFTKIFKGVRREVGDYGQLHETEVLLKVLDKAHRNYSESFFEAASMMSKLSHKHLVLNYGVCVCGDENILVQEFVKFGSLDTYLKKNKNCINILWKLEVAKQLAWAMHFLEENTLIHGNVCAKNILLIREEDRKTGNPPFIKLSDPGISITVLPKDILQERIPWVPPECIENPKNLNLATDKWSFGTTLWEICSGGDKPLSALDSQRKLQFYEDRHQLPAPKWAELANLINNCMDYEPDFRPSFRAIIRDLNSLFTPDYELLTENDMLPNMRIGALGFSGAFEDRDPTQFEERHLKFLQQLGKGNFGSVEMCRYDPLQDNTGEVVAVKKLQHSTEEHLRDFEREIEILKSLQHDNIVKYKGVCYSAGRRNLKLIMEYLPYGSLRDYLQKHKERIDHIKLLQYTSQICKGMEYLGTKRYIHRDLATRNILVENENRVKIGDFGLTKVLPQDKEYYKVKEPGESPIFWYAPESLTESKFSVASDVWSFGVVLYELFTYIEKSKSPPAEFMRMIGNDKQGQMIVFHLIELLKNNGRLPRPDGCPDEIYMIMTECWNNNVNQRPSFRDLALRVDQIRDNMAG
Source text: as §1, §2

[1] = system: GM-CSFR/JAK2/STAT5 pathway; assay: csTF-1 cell-based reporter assay; details: Homo sapiens; csTF-1 cells, GM-CSF at 2 ng/mL, 4 hours; read-out: Cell Assay: CS TF-1 reporter assay IC50
Method: csTF-1 Cell-Based Reporter Assay
csTF-1 cells are derived from the human erythroleukemia cell line that is growth dependent on GM-CSF and has an intact GM-CSFR/JAK2/STAT5 pathway. The cell line contains stably integrated beta-lactamase reporter gene under the control of the […] (irf 1) response element recognized by the activated transcription factor STATS. csTF-1 cells (Invitrogen K1219) were washed with assay media (97% OPTIMEM/0.5% dialyzed FBS/0.1 mM NEAA/1 mM Na pyr/P/S) and seeded in the same media at 5×10^5 cell/mL in T150 flask. After 16 hour incubation, cells were seeded at 2×10^5 cell/well in 50 μl volume, into Costar, clear bottom, 96-well assay plates. Serial dilutions of compounds were added to the plates with final DMSO concentration at 0.5% and GM-CSF at 2 ng/mL and the plates were then incubated at […] and 5% CO2 for 4 hours. The plates were brought to room temperature before adding Substrate Mixture according to manufacturer's protocol (Invitrogen, Catalog #K1085). The assay plates containing the substrate mixture were incubated in the dark at room temperature for 2 hours. Blue and green fluorescence was measured with excitation at 409 nm and emission at 460 nm (for blue) and excitation at 409 nm and emission at 530 nm (for green) using Spectra Max Gemini EM.

Tyk2 = biological target: T3, Tyk2 (Homo sapiens, UniProt P29597); assay: Competition binding assay to determine Kd against JAK kinases: Tyk2
T3 construct: made in house; host or cells: T7 phage display, or HEK-293 cells (alternative)
T3 sequence (P29597 whole entry): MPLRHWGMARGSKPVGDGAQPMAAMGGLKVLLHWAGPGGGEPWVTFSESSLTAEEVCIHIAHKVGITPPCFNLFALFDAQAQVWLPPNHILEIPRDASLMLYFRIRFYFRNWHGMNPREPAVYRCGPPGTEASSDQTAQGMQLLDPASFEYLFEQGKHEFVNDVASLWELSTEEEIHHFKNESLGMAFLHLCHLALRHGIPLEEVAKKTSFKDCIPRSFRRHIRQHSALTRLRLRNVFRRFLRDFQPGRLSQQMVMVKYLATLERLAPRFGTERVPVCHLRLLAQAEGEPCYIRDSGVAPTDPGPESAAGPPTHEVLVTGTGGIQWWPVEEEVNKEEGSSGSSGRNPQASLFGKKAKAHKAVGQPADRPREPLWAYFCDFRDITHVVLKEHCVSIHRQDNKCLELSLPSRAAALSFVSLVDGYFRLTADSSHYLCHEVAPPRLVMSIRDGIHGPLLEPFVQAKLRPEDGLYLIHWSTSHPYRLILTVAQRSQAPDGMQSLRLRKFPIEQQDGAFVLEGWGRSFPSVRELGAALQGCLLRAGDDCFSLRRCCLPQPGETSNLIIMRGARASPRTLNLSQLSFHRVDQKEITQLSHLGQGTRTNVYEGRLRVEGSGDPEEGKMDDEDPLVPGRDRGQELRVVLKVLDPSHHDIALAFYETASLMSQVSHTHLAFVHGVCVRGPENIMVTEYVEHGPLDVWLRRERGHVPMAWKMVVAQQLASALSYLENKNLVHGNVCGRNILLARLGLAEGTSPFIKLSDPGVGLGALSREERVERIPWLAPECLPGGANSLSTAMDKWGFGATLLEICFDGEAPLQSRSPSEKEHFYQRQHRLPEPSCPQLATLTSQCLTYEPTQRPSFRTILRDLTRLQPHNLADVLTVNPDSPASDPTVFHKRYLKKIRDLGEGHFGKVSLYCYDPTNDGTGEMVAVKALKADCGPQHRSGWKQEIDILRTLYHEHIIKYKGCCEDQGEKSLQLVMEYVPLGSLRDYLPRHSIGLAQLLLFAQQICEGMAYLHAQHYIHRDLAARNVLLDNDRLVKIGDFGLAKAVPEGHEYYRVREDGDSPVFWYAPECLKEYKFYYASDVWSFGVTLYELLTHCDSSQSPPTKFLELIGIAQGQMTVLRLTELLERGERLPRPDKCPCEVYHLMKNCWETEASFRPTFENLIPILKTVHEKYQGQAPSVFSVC
Source text: as §1, §2

Compound Cc1cc(Nc2nc(C(=O)c3ccc(F)cn3)nc3ccccc23)n[nH]1 [Example 1, (5-fluoropyridin-2-yl)(4-(5-methyl-1H-pyrazol-3-ylamino)quinazolin-2-yl)methanone] has a Kd (JAK3) of 0.01 to 0.1 µM, a Kd (JAK2) of 0.001 to 0.01 µM and an IC50 [1] of no more than 0.1 µM. It also gave a Kd (Tyk2) of no more than 0.01 µM.
Compound Cc1cc(Nc2nc(C(F)(F)c3ccc(F)cn3)nc3ccccc23)n[nH]1 [Example 2, 2-(difluoro(5-fluoropyridin-2-yl)methyl)-N-(5-methyl-1H-pyrazol-3-yl)quinazolin-4-amine] has a Kd (JAK3) of no more than 0.01 µM, a Kd (JAK2) of no more than 0.001 µM and an IC50 [1] of no more than 0.1 µM. The Kd (Tyk2) was no more than 0.01 µM.
For Cc1cc(Nc2nc(C(F)(F)c3ncc(F)cn3)nc3ccccc23)n[nH]1 [Example 3, 2-(difluoro(5-fluoropyrimidin-2-yl)methyl)-N-(5-methyl-1H-pyrazol-3-yl)quinazolin-4-amine], the Kd (JAK3) was 0.01 to 0.1 µM, the Kd (JAK2) was no more than 0.001 µM and the IC50 [1] was no more than 0.1 µM. It also gave a Kd (Tyk2) of no more than 0.01 µM.
Compound Fc1ccc(C(F)(F)c2nc(Nc3cc[nH]n3)c3ccccc3n2)nc1 [Example 4, 2-(difluoro(5-fluoropyridin-2-yl)methyl)-N-(1H-pyrazol-3-yl)quinazolin-4-amine] has a Kd (JAK3) of 0.01 to 0.1 µM, a Kd (JAK2) of no more than 0.001 µM and an IC50 [1] of no more than 0.1 µM. The Kd (Tyk2) was no more than 0.01 µM.
For COc1cc(Nc2nc(C(F)(F)c3ccc(F)cn3)nc3ccccc23)n[nH]1 [Example 5, 2-(difluoro(5-fluoropyridin-2-yl)methyl)-N-(5-methoxy-1H-pyrazol-3-yl)quinazolin-4-amine], the Kd (JAK3) was 0.01 to 0.1 µM, the Kd (JAK2) was no more than 0.001 µM and the IC50 [1] was 0.1 to 0.5 µM. For the same compound, the Kd (Tyk2) was no more than 0.01 µM.
COc1ccc2c(Nc3cc(C)[nH]n3)nc(C(F)(F)c3ccc(F)cn3)nc2c1 [Example 6, 2-(difluoro(5-fluoropyridin-2-yl)methyl)-7-methoxy-N-(5-methyl-1H-pyrazol-3-yl)quinazolin-4-amine] gave a Kd (JAK3) of no more than 0.01 µM, a Kd (JAK2) of no more than 0.001 µM and an IC50 [1] of no more than 0.1 µM. The Kd (Tyk2) was no more than 0.01 µM.
For Cc1cc(Nc2nc(C(F)(F)c3ccc(F)cn3)nc3cc(Br)ccc23)n[nH]1 [Example 7, 7-bromo-2-(difluoro(5-fluoropyridin-2-yl)methyl)-N-(5-methyl-1H-pyrazol-3-yl)quinazolin-4-amine], the Kd (JAK3) was no more than 0.01 µM, the Kd (JAK2) was no more than 0.001 µM and the IC50 [1] was no more than 0.1 µM. For the same compound, the Kd (Tyk2) was no more than 0.01 µM.
In the case of Cc1cc(Nc2nc(C(F)(F)c3ccc(F)cn3)nc3cc(C#N)ccc23)n[nH]1 [Example 8, 2-(difluoro(5-fluoropyridin-2-yl)methyl)-4-(5-methyl-1H-pyrazol-3-ylamino)quinazoline-7-carbonitrile], the Kd (JAK3) is reported as 0.01 to 0.1 µM, the Kd (JAK2) is reported as 0.001 to 0.01 µM and the IC50 [1] is reported as no more than 0.1 µM. The Kd (Tyk2) was no more than 0.01 µM.
In the case of Cc1cc(Nc2nc(C(F)(F)c3ccc(F)cn3)nc3cc(C4CC4)ccc23)n[nH]1 [Example 9, 7-cyclopropyl-2-(difluoro(5-fluoropyridin-2-yl)methyl)-N-(5-methyl-1H-pyrazol-3-yl)quinazolin-4-amine], the Kd (JAK3) is reported as no more than 0.01 µM, the Kd (JAK2) is reported as no more than 0.001 µM and the IC50 [1] is reported as no more than 0.1 µM. It also gave a Kd (Tyk2) of no more than 0.01 µM.
Cc1cc(Nc2nc(C(F)(F)c3ccc(F)cn3)nc3c(C)cccc23)n[nH]1 [Example 10, 2-(Difluoro(5-fluoropyridin-2-yl)methyl)-8-methyl-N-(5-methyl-1H-pyrazol-3-yl)quinazolin-4-amine] was tested, and the Kd (JAK3) was no more than 0.01 µM, the Kd (JAK2) was no more than 0.001 µM and the IC50 [1] was no more than 0.1 µM. It also gave a Kd (Tyk2) of no more than 0.01 µM.
For Cc1cc(Nc2nc(C(F)(F)c3ccc(F)cn3)nc3c(Br)cccc23)n[nH]1 [Example 11, 8-bromo-2-(difluoro(5-fluoropyridin-2-yl)methyl)-N-(5-methyl-1H-pyrazol-3-yl)quinazolin-4-amine], the Kd (JAK3) was 0.01 to 0.1 µM, the Kd (JAK2) was no more than 0.001 µM and the IC50 [1] was 0.1 to 0.5 µM. It also gave a Kd (Tyk2) of no more than 0.01 µM.
Work on Cc1cc(Nc2nc(C(F)(F)c3ccc(F)cn3)nc3c(F)cccc23)n[nH]1 [Example 12, 2-(difluoro(5-fluoropyridin-2-yl)methyl)-8-fluoro-N-(3-methyl-1H-pyrazol-5-yl)quinazolin-4-amine] yielded a Kd (JAK3) of no more than 0.01 µM, a Kd (JAK2) of no more than 0.001 µM and an IC50 [1] of no more than 0.1 µM. It also gave a Kd (Tyk2) of no more than 0.01 µM.
Compound Cc1cc(Nc2nc(C(F)(F)c3ccc(F)cn3)nc3c(Cl)cccc23)n[nH]1 [Example 13, 8-chloro-2-(difluoro(5-fluoropyridin-2-yl)methyl)-N-(5-methyl-1H-pyrazol-3-yl)quinazolin-4-amine] has a Kd (JAK3) of no more than 0.01 µM, a Kd (JAK2) of no more than 0.001 µM and an IC50 [1] of no more than 0.1 µM. The Kd (Tyk2) was no more than 0.01 µM.
In the case of Cc1ccc2c(Nc3cc(C)[nH]n3)nc(C(F)(F)c3ccc(F)cn3)nc2c1 [Example 14, 2-(difluoro(5-fluoropyridin-2-yl)methyl)-7-methyl-N-(5-methyl-1H-pyrazol-3-yl)quinazolin-4-amine], the Kd (JAK3) is reported as no more than 0.01 µM, the Kd (JAK2) is reported as no more than 0.001 µM and the IC50 [1] is reported as no more than 0.1 µM. The Kd (Tyk2) was no more than 0.01 µM.
Cc1cc(Nc2nc(C(F)(F)c3ccc(F)cn3)nc3cc(F)ccc23)n[nH]1 [Example 15, 2-(difluoro(5-fluoropyridin-2-yl)methyl)-7-fluoro-N-(5-methyl-1H-pyrazol-3-yl)quinazolin-4-amine] showed a Kd (JAK3) of 0.01 to 0.1 µM, a Kd (JAK2) of no more than 0.001 µM and an IC50 [1] of no more than 0.1 µM. The Kd (Tyk2) was no more than 0.01 µM.
Cc1cc(Nc2nc(C(F)(F)c3ccc(F)cn3)nc3cc(Cl)ccc23)n[nH]1 [Example 16, 7-chloro-2-(difluoro(5-fluoropyridin-2-yl)methyl)-N-(5-methyl-1H-pyrazol-3-yl)quinazolin-4-amine] was tested, and the Kd (JAK3) was 0.01 to 0.1 µM, the Kd (JAK2) was no more than 0.001 µM and the IC50 [1] was no more than 0.1 µM. For the same compound, the Kd (Tyk2) was no more than 0.01 µM.
COC(=O)c1cccc2c(Nc3cc(C)[nH]n3)nc(C(F)(F)c3ccc(F)cn3)nc12 [Example 47, methyl 2-(difluoro(5-fluoropyridin-2-yl)methyl)-4-((5-methyl-1H-pyrazol-3-yl)amino)quinazoline-8-carboxylate] showed a Kd (JAK3) of no more than 0.01 µM, a Kd (JAK2) of no more than 0.001 µM and a Kd (Tyk2) of no more than 0.01 µM.
